The results in this text go back to patent US12692232B2, “Indole carboxamide compound, preparation therefor and use thereof” (NANJING RUISHUNING MEDICAL TECHNOLOGY CO., LTD., priority 2021, dated 2026).

The assay addresses T1, TRPC6 channel (Homo sapiens, UniProt Q9Y210).
T1 sequence (Q9Y210 1-931): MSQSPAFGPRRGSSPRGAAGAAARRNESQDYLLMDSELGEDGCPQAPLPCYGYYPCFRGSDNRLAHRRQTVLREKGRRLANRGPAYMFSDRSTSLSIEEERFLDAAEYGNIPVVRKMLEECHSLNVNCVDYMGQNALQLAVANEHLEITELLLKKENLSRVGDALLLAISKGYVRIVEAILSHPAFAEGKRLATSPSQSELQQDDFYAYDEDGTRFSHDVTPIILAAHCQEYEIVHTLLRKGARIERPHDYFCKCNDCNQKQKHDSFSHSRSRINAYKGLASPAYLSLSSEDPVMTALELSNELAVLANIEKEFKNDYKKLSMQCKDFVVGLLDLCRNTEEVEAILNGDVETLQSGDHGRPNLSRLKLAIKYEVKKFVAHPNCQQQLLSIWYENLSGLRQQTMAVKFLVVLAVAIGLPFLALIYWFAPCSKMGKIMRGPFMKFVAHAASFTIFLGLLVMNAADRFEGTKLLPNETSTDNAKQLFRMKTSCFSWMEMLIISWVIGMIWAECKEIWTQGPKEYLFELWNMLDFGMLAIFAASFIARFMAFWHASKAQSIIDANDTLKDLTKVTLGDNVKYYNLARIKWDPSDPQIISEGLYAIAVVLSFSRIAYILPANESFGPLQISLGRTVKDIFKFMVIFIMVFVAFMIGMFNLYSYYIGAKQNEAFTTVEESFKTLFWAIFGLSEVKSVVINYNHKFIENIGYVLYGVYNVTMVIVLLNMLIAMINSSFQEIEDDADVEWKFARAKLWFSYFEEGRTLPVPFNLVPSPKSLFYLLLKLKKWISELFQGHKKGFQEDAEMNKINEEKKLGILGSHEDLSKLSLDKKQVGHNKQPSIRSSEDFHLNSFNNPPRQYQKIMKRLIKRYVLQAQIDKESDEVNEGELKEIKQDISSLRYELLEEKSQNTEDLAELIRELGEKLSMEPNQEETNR
Kind of assay: IC50 on TRPC6 channel-mediated Ca2+ entry in HEK293hTRPC6 cells. The arrangement: expressed in transfected cells; host or cells: HEK293 (lentiviral transduction, puromycin selection). The following applies: HEK293hTRPC6, OAG 80 μM, Ca2+ 2 mM. The class given is cell-based. The procedure: The half maximal inhibitory concentrations (IC50) of the compounds of the present invention (as exemplified by Compound 1-1 obtained in Example 1) on TRPC6 channel-mediated Ca^2+ entry were determined using HEK293hTRPC6, a tool cell overexpressing TRPC6 protein. Methods were as follows: HEK293hTRPC6, a tool cell overexpressing TRPC6 protein, was established in the same manner as in Example 7.
Determination of the effect of compounds on changes in intracellular calcium ion concentration in HEK293hTRPC6 cells: the mother solution of the compounds was diluted to the following concentrations, 0.1 nM, 0.3 nM, 1 nM, 3 nM, 10 nM, 30 nM, 100 nM, 300 nM, 1,000 nM, and 3,000 nM, respectively, using cell culture medium. […] The crawls were placed in the center of the bath, perfused with calcium-free Tyrode's solution for 5 min and fixed on the stage of an inverted fluorescence microscope. […] Fluorescence intensity was measured at different excitation wavelengths (340 nm, 380 nm) using a TILL Ion Imaging System (TILLvisION), and the value of fluorescence intensity emitted by intracellular fluorescent probe at different excitation wavelengths was substituted into the formula: [Ca^2+]i=Kd×β×(R−Rmin)/[…]. […] Dose-effect curves were fitted using GraphPad Prism software and the IC50 was calculated.

The IC50 is the point on the concentration scale where inhibition reaches its midpoint. Low values mean greater potency in that assay, high ones weaker potency in that assay.

Molecules are shown by their SMILES.

The molecule `Cn1c(C(=O)NCCC(=O)O)cc2ccccc21` [3-[(1-methyl-1H-indole-2-carbonyl)amino]propionic acid, reference compound] displayed an IC50 of 24.1 nM.

`CC(=O)OCCCNC(=O)c1c(C=O)c2ccccc2n1C` [compound 1-1, propyl 3-[(3-formyl-1-methyl-1H-indole-2-carbonyl)amino]acetate] had a half-maximal inhibitory concentration (IC50) of 11.4 nM.
